The source of these data is patent US5620864A, “Acceptor for fucosyl transferase” (Health Research, Inc., priority 1992, dated 1997).

In assay [1] the target is T1, serum α1,3-L-fucosyltransferase (Homo sapiens, UniProt P51993).
T1 construct: Sera were collected from healthy females and ovarian cancer patients; from tissue; host or cells: blood serum of ovarian cancer patients and healthy females
T1 sequence (P51993 35-359 limits assumed): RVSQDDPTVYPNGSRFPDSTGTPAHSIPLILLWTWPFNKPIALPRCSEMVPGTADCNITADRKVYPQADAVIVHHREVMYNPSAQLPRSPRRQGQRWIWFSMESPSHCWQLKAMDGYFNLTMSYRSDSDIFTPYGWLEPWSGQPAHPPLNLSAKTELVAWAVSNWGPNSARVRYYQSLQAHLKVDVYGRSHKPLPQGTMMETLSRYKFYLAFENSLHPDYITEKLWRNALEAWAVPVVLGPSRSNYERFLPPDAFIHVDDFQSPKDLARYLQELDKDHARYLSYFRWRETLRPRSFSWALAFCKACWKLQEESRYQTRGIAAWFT
Kind of assay: Assay of α1,3-fucosyltransferase with various synthetic acceptors, ovarian cancer sera as enzyme source. The assay is classed as biochemical. To be noted: for Relative Percent: 2'-methyl LacNAc = 100; for [14C] Fucose Incorporated (CPM): acceptor 0.3 mM, 37° C. 18 h. The protocol: Sera were collected from healthy females and ovarian cancer patients admitted to Roswell Park Cancer Institute in Buffalo, N.Y., USA. Ovarian tumor tissues were obtained during surgical procedures from patients with ovarian cancer. Both sera and tissues were stored frozen at -70° C. until use.
(§1) An incubation mixture contained 50 mM HEPES-NaOH, pH 7.5, 5 mM MnC12, 7 mM ATP, 3 mM NaN3, the acceptor 0.3 mM (for serum enzyme) or 3.0 mM (for tumor enzyme), 0.125 μCi of GDP-[U-^14 C] Fuc (Sp. Act. 216 mCi/mmol) and enzyme in a total volume of 0.10 ml; the control incubation mixture had everything except the acceptor. At the end of incubation at 37° C. for 18 h, the mixture was diluted with 1 ml water and passed through Dowex-1-C1 column (1 ml in a Pasteur pipet). The column was washed twice with 1 ml water; the breakthrough and wash, which contained the [^14 C] fucosylated neutral acceptor, were collected together in a scintillation vial and counted for radioactivity using the scintillation coctail 3a70 (Research Products International, Mount Prospects, Ill.) and Beckman LS9000. The Dowex column was then eluted successively with 3 ml each of 0.1M and 0.2M NaCl; these eluates which contained the [^14 C] fucosylated sulfated acceptors, were counted for radioactivity as before. Corrections were made by subtracting the radioactivity in the water and NaCl eluates of the control incubation mixture from the corresponding test fractions. The duplicate runs of samples gave almost identical values, the difference being <5%.
The activity of serum α1,3-fucosyltransferase was measured with the specific substrate 2'-methyl LacNAc and compared with the ability of several other synthetic substrates to act as an acceptor of fucose.
When the structure of the acceptor 2'-methyl LacNAc was modified by replacing the methyl group with sulfate group in C-2', 3', 6' or 6 position and tested their ability to act as the acceptor of fucose, the following novel findings emerged. […] The β-benzyl glycoside of 3' sulfo LacNAc was quite active (168.4%) but less than the parent compound.

Assay [2] has as its system α1,3-L-fucosyltransferase of the soluble fraction of human ovarian tumor. The experiment in a line: Assay of α1,3-fucosyltransferase with synthetic acceptors, partially purified enzyme of ovarian tumor soluble fraction. The assay is classed as biochemical. To be noted: for [14C] Fucose Incorporated (CPM): acceptor 3.0 mM, 37° C. 18 h. The protocol:
as §1
As shown in the scheme set forth in FIG. 2, the α-L-fucosidase-free extract of the tissue (40 g), after concentration by 80% (NH4)2 SO4 precipitation was fractionated on bovine IgG glycopep-Sepharose in batches of 25 ml. After washing the column with the equilibration buffer, the bound enzyme was eluted with 1 M NaCl in the same buffer. The protein positive fractions were pooled and processed as shown in the scheme 2.0 ml of the above preparation was loaded on a Sephacryl S-200 column (Superfine:2.6 cm×88.0 cm) equilibrated at 4° C. with 50 mM Tris-HC1, pH 7.0 containing 0.15M NaCl and 0.1% Triton X-100 and eluted with the same buffer. Fractions of 3.0 ml were collected. The fucosyltransferase activity was located in the effluent fractions, by assaying first every 5th fraction and then obtaining the activity profile by assaying the alternate fractions in that range, using 2'-fucosyl LacNAc as the acceptor. […] Its elution position, which is slightly later than BSA, run separately on the same column, indicates its molecular weight as <67,000 daltons. […] The enzyme has been purified 66 fold over the soluble extract with a recovery of 6.2%. The enzyme at this stage lost its activity either kept frozen at -20° C. or left at 4° C. for more than a week. However, the enzyme at the end of the previous step was fairly stable for at least two months at 4° C. So this preparation of enzyme was used in acceptor ability comparison studies.
When α1,3-fucosyltransferase activity of the partially purified enzyme preparation from the soluble portion of ovarian tumor was measured and compared with the activity of other acceptors, the following results were obtained. 2'-methyl LacNAc, LacNAc and Galβ1, 3GlcNAc were respectively 100.0%, 60.6% and 565.5% active, indicating the presence of both α1,3 and α1,4 fucosyltransferase activities in this preparation.

Assay [3] has as its system α1,3-L-fucosyltransferase of the particulate fraction of ovarian tumor. Kind of assay: Assay of α1,3-fucosyltransferase with synthetic acceptors, ovarian tumor particulate fraction. The assay is classed as biochemical, human. Conditions: for Relative Percent: 2'-methyl LacNAc = 100; for [14C] Fucose Incorporated (CPM): acceptor 3.0 mM, 37° C. 18 h. Here is the method: FIG. 2 The scheme for the preparation of the particulate and soluble fractions of human ovarian tumor.
as §1
This finding is quite different from what we found with the soluble fraction, where α1,4-fucosyltransferase activity seems to be greater than α1,3-fucosyltransferase activity. […] The different nature of the above enzymes was made further clear, when sulfated derivatives of LacNAc was tested as acceptors.

Molecules are shown by their SMILES.

`CC(=O)N[C@H]1C(O)O[C@H](CO)[C@@H](O)[C@@H]1O[C@@H]1O[C@H](CO)[C@H](O)[C@H](O)[C@H]1O` (stereo partly drawn) [Ga1β1,3G1cNAc]: the “Relative Percent” value in assay [1] is 13.1%; in assay [2] (2'-methyl LacNAc = 100), 565.5%; in assay [2] (2'-methyl LacNAc = 100, listed as Galβ1, 3 GlcNAc), 566%; in assay [2] (2'-methyl LacNAc = 100, listed as Galβ1, 3GlcNAc), 565.5%; in assay [3] it was 34.2%. For the same compound, the “[14C] Fucose Incorporated (CPM)” value is 227 CPM in assay [1], 41802 CPM in assay [2] and 16511 CPM in assay [3].

As for `CC(=O)N[C@H]1[C@H](OCc2ccccc2)O[C@H](CO)[C@@H](O)[C@@H]1O[C@@H]1O[C@H](CO)[C@H](O)[C@H](O)[C@H]1O` [Ga1β1,3G1cNAcβ-O--Bn], the “Relative Percent” value in assay [1] worked out at 21.7%; in assay [2] (2'-methyl LacNAc = 100), 1004.5%; in assay [2] (2'-methyl LacNAc = 100, listed as β-benzyl glycoside of Galβ1, 3 Glc NAc) it was 1005%; in assay [2] (2'-methyl LacNAc = 100, listed as β-benzyl glycoside of Galβ1,3GlcNAc), 1004.5%; in assay [3], 37.8%. Besides, the figures for the “[14C] Fucose Incorporated (CPM)” value in assay [1], in assay [2] and in assay [3] were 376 CPM, 74260 CPM and 18221 CPM, respectively.

With `CC(=O)N[C@H]1C(O)O[C@H](CO)[C@@H](O[C@@H]2O[C@H](CO)[C@H](O)[C@H](O)[C@H]2O)[C@@H]1O` (stereo partly shown) [LacNAc], the “Relative Percent” value in assay [1] was 93.4%; in assay [2] (2'-methyl LacNAc = 100) it was 60.6%; in assay [3], 61.8%. Moreover, the “[14C] Fucose Incorporated (CPM)” value in assay [1] worked out at 1615 CPM; in assay [2], 4480 CPM; in assay [3] it was 29842 CPM.

Take `CC(=O)N[C@H]1[C@H](O[C@H]2[C@@H](O)[C@@H](CO)O[C@@H](Oc3ccc([N+](=O)[O-])cc3)[C@@H]2O)O[C@H](CO)[C@@H](O[C@@H]2O[C@H](CO)[C@H](O)[C@H](O)[C@H]2O)[C@@H]1O` [LacNAcβ1,3Ga1β-O--PNP]: the figures for the “Relative Percent” value in assay [1], in assay [2] (2'-methyl LacNAc = 100) and in assay [3] were 166.8%, 87.0% and 70.0%, respectively. Also, the “[14C] Fucose Incorporated (CPM)” value in assay [1] was 2886 CPM; in assay [2] it was 6432 CPM; in assay [3], 33759 CPM.

As for `CC(=O)N[C@H]1[C@H](OCc2ccccc2)O[C@H](CO)[C@@H](O[C@@H]2O[C@H](CO)[C@H](O)[C@H](O)[C@H]2O)[C@@H]1O` [LacNAcβ-O--Bn], the “Relative Percent” value in assay [1] is given as 358.8%; in assay [2] (2'-methyl LacNAc = 100) it was 111.6%; in assay [3], 132.9%. Further, the “[14C] Fucose Incorporated (CPM)” value in assay [1] stood at 6207 CPM; in assay [2], 8249 CPM; in assay [3] it was 64223 CPM.
